The values that follow come from patent publication US10160750B2, “Diamide macrocycles as factor XIa inhibitors” (BRISTOL-MYERS SQUIBB COMPANY, priority 2015, dated 2018).

Experiment [1] addresses T1, purified human Factor XIa (Homo sapiens, UniProt P03951).
T1 construct: purchased Haematologic Technologies
Nature of the experiment: Factor XIa enzyme inhibition assay (chromogenic substrate S-2366). In kind it is biochemical. The settings on record: substrate S-2366, pH 7.4. The procedure:
(§1) The effectiveness of compounds of the present invention as inhibitors of the coagulation Factors XIa, VIIa, IXa, Xa, XIIa, plasma kallikrein or thrombin, can be determined using a relevant purified serine protease, respectively, and an appropriate synthetic substrate. The rate of hydrolysis of the chromogenic or fluorogenic substrate by the relevant serine protease was measured both in the absence and presence of compounds of the present invention. […] A decrease in the rate of absorbance or fluorescence change in the presence of inhibitor is indicative of enzyme inhibition. Such methods are known to one skilled in the art. The results of this assay are expressed as the inhibitory constant, Ki.
Factor XIa determinations were made in 50 mM HEPES buffer at pH 7.4 containing 145 mM NaCl, 5 mM KCl, and 0.1% PEG 8000 (polyethylene glycol; JT Baker or Fisher Scientific). Determinations were made using purified human Factor XIa at a final concentration of 25-200 pM (Haematologic Technologies) and the synthetic substrate S-2366 (pyroGlu-Pro-Arg-pNA; Chromogenix or AnaSpec) at a concentration of 0.0002-0.001 M.
(§2) The Michaelis constant, Km, for substrate hydrolysis by each protease, was determined at 25° C. or 37° C. in the absence of inhibitor. Values of Ki were determined by allowing the protease to react with the substrate in the presence of the inhibitor. Reactions were allowed to go for periods of 20-180 minutes (depending on the protease) and the velocities (rate of absorbance or fluorescence change versus time) were measured. The following relationships were used to calculate Ki values: (Vmax*S)/(Km+S); (vo−vs)/vs=I/(Ki*(1+S/Km)) for a competitive inhibitor with one binding site; or vs/vo=A+((B−A)/(1+(IC50/(I))^n)); and Ki=IC50/(1+S/Km) for a competitive inhibitor where: […]

The target of experiment [2] is T2, purified human plasma kallikrein (Homo sapiens, UniProt P03952).
T2 construct: Plasma prekallikrein is a zymogen of a trypsin-like serine protease; purchased Enzyme Research Laboratories
T2 sequence (P03952 391-638 limits assumed): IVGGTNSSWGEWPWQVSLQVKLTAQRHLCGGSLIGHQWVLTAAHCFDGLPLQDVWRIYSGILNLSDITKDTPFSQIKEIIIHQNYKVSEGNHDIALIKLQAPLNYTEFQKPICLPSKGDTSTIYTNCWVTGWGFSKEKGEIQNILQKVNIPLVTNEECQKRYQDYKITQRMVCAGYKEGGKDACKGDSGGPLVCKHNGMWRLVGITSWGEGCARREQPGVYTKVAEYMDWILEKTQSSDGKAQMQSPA
T2 sequence (P03952 20-390 partner limits assumed): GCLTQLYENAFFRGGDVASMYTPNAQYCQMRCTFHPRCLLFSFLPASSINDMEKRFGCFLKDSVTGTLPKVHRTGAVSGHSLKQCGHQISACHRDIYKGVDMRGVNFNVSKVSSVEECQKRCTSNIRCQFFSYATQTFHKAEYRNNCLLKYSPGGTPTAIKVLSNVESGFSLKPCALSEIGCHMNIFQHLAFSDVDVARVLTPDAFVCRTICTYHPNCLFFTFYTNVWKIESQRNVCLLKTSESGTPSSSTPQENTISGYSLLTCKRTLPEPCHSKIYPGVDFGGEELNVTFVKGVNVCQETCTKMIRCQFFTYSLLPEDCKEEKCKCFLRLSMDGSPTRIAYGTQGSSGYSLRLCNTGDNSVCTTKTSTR
Nature of the experiment: Plasma kallikrein enzyme inhibition assay (chromogenic substrate S-2302). The class given is biochemical. The settings on record: substrate S-2302, pH 7.5. The method, then:
as §1
Plasma kallikrein determinations were made in 0.1 M sodium phosphate buffer at a pH of 7.5 containing 0.1-0.2 M sodium chloride and 0.5% PEG 8000. Determinations were made using purified human plasma kallikrein (Enzyme Research Laboratories) at a final assay concentration of 200 pM and the synthetic substrate S-2302 (H-(D)-Pro-Phe-Arg-pNA; Chromogenix) at a concentration of 0.00008-0.0004 M.
as §2

T1 sequence (P03951 388-625 limits assumed): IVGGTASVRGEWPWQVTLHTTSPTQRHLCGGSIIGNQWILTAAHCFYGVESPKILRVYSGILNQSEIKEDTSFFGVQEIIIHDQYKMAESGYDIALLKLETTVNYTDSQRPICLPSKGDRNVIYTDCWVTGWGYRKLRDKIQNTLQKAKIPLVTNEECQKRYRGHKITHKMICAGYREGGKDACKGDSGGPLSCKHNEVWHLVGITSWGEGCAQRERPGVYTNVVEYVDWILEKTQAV
T1 sequence (P03951 19-387 partner limits assumed): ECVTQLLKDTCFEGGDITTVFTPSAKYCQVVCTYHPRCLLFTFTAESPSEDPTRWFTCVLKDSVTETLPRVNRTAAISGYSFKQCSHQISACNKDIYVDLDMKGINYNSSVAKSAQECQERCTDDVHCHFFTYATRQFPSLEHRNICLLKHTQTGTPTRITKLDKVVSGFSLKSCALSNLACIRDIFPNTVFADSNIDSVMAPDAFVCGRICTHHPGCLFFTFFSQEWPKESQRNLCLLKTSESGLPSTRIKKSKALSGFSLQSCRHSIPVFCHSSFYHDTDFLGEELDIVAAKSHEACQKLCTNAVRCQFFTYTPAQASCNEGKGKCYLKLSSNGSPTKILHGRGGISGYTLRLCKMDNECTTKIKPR

Turning to `CC1NC(=O)[C@@H](N2CCC(c3cc(Cl)ccc3-n3cc(C(F)(F)F)nn3)=CC2=O)CCC[C@@H](C)C(=O)Nc2ccccc21` (single isomer, unassigned; diastereomer a) [Example 21], the inhibition constant (Ki) in experiment [1] was 93 nM; in experiment [2], 2830 nM.
With `CC1NC(=O)[C@@H](N2CCC(c3cc(Cl)ccc3-n3cc(C(F)(F)F)nn3)=CC2=O)CCC[C@@H](C)C(=O)Nc2ccccc21` (single isomer, unassigned; diastereomer b) [Example 22], the Ki in experiment [1] is 3680 nM; in experiment [2], above 13000 nM.
For `C[C@@H]1CCC[C@H](n2cnc(-c3cc(Cl)ccc3-n3cc(C(F)(F)F)nn3)cc2=O)C(=O)NCc2ccccc2NC1=O` [Example 11, (3R,7S)-7-(4-(5-Chloro-2-(4-(trifluoromethyl)-1H-1,2,3-triazol-1-yl)phenyl)-6-oxopyrimidin-1(6H)-yl)-3-methyl-4,5,6,7,9,10-hexahydrobenzo[b][1,5]-diazacyclododecine-2,8(1H, 3H)-dione], in that order: 18.7 nM and 3380 nM.
For `C[C@@H]1CCC[C@H](n2cnc(-c3c(-n4cc(Cl)nn4)ccc(Cl)c3F)cc2=O)C(=O)NCc2ccccc2NC1=O` [Example 12, (3R,7S)-7-(4-(3-Chloro-6-(4-chloro-1H-1,2,3-triazol-1-yl)-2-fluorophenyl)-6-oxopyrimidin-1(6H)-yl)-3-methyl-4,5,6,7,9,10-hexahydrobenzo[b][1,5]diazacyclo-dodecine-2,8(1H,3H)-dione], in that order: 2 nM and 179 nM.
For `C[C@@H]1CCC[C@H](n2cnc(-c3cc(Cl)ccc3-n3cc(Cl)nn3)cc2=O)C(=O)NCc2ccccc2NC1=O` [Example 13, (3R,7S)-7-(4-(5-Chloro-2-(4-chloro-1H-1,2,3-triazol-1-yl)phenyl)-6-oxopyrimidin-1(6H)-yl)-3-methyl-4,5,6,7,9,10-hexahydrobenzo[b][1,5]diazacyclo-dodecine-2,8(1H,3H)-dione], in that order: 8.5 nM and 1230 nM.
In the case of `C[C@@H]1CCC[C@H](n2cnc(-c3c(-n4cc(C(F)(F)F)nn4)ccc(Cl)c3F)cc2=O)C(=O)NCc2ccccc2NC1=O` [Example 14, (3R,7S)-7-(4-(3-Chloro-2-fluoro-6-(4-(trifluoromethyl)-1H-1,2,3-triazol-1-yl)phenyl)-6-oxopyrimidin-1(6H)-yl)-3-methyl-4,5,6,7,9,10-hexahydrobenzo[b][1,5]-diazacyclododecine-2,8(1H,3H)-dione], the inhibitory constant (Ki) was 4.3 nM in experiment [1] and 733 nM in experiment [2].
Take `C[C@@H]1CCC[C@H](n2cnc(-c3cc(Cl)ccc3-n3cc(C(F)F)nn3)cc2=O)C(=O)NCc2ccccc2NC1=O` [Example 15, (3R,7S)-7-(4-(5-Chloro-2-(4-(difluoromethyl)-1H-1,2,3-triazol-1-yl)phenyl)-6-oxopyrimidin-1(6H)-yl)-3-methyl-4,5,6,7,9,10-hexahydrobenzo[b][1,5]diazacyclo-dodecine-2,8(1H, 3H)-dione]: the figures for the Ki in experiment [1] and in experiment [2] were 34.8 nM and 3360 nM, respectively.
Regarding `C[C@@H]1CCC[C@H](N2CCC(c3cc(Cl)ccc3-n3cc(Cl)nn3)=CC2=O)C(=O)NCc2ccccc2NC1=O` [Example 16, (3R,7S)-7-(4-(5-Chloro-2-(4-chloro-H-1,2,3-triazol-1-yl)phenyl)-2-oxo-5,6-dihydropyridin-1(2H)-yl)-3-methyl-4,5,6,7,9,10-hexahydrobenzo[b][1,5]diazacyclododecine-2,8(1H, 3H)-dione], the inhibitory constant (Ki) in experiment [1] is 4 nM; in experiment [2], 60.7 nM.
`C[C@@H]1CCC[C@H](N2CCC(c3c(F)ccc(Cl)c3F)=CC2=O)C(=O)NCc2ccccc2NC1=O` [Example 17, (3R,7S)-7-(4-(3-Chloro-2,6-difluorophenyl)-2-oxo-56-dihydropyridin-1(2H)-yl)-3-methy 1-4,5,6,7,9,10-hexahydrobenzo[b][1,5]diazacyclododecine-2,8(1H,3H)-dione]: the inhibition constant Ki in experiment [1] stood at 112 nM; in experiment [2], 558 nM.
Take `C[C@@H]1CCC[C@H](N2CCC(c3cc(Cl)ccc3-n3cc(C(F)(F)F)nn3)=CC2=O)C(=O)NCc2ccccc2NC1=O` [Example 18]: the Ki in experiment [1] stood at 3.1 nM; in experiment [2] it was 103 nM.
Consider `C[C@@H]1CCC[C@H](n2ccc(-c3cc(Cl)ccc3-n3cc(Cl)nn3)cc2=O)C(=O)NCc2ccccc2NC1=O` [Example 18], for which the Ki in experiment [1] is 10.1 nM; in experiment [2], 259 nM.
Regarding `C[C@@H]1CCC[C@H](n2cnc(-c3cc(Cl)ccc3-n3cc(C(F)(F)F)nn3)cc2=O)C(=O)NCc2cc(F)ccc2NC1=O` [Example 19, (3R,7S)-7-(4-(5-Chloro-2-(4-(trifluoromethyl)-1H-1,2,3-triazol-1-yl)phenyl)-6-oxopyrimidin-1(6H)-yl)-12-fluoro-3-methyl-4,5,6,7,9,10-hexahydrobenzo[b][1,5]diazacyclododecine-2,8(1H,3H)-dione], the Ki in experiment [1] is 18.7 nM; in experiment [2] it was at least 13000 nM.
For `C[C@@H]1CCC[C@H](N2CCC(c3cc(Cl)ccc3-n3cc(C(F)(F)F)nn3)=CC2=O)C(=O)NCc2cc(F)ccc2NC1=O` [Example 20, (3R,7S)-7-(4-(5-Chloro-2-(4-(trifluoromethyl)-1H-1,2,3-triazol-1-yl)phenyl)-2-oxo-5,6-dihydropyridin-1(2H)-yl)-12-fluoro-3-methyl-4,5,6,7,9,10-hexahydrobenzo[b][1,5]diazacyclododecine-2,8(1H,3H)-dione], in that order: 7 nM and 268 nM.
For `C[C@@H]1CCC[C@H](NC(=O)c2cn(-c3cccc(Cl)c3F)nn2)C(=O)NCc2ccccc2NC1=O` [Example 23, 1-(3-chloro-2-fluorophenyl)-N-((3R,7S)-3-methyl-2,8-dioxo-1,2,3,4,5,6,7,8,9,10-decahydrobenzo[b][1,5]diazacyclododecin-7-yl)-1H-1,2,3-triazole-4-carboxamide], in that order: 8730 nM and at least 13000 nM.
Consider `Cc1c(C(=O)N[C@H]2CCC[C@@H](C)C(=O)Nc3ccccc3CNC2=O)ncn1-c1cccc(Cl)c1F` [Example 24, 1-(3-chloro-2-fluorophenyl)-5-methyl-N-((3R,7S)-3-methyl-2,8-dioxo-1,2,3,4,5,6,7,8,9,10-decahydrobenzo[b][1,5]diazacyclododecin-7-yl)-1H-imidazole-4-carboxamide], for which the inhibition constant (Ki) in experiment [1] was determined as 7410 nM; in experiment [2], 4360 nM.
In the same order, the values of `O=C1CCCCC[C@H](NC(=O)c2cn(-c3cccc(Cl)c3F)nn2)C(=O)Nc2ccccc2N1` [Example 25, (S)-1-(3-chloro-2-fluorophenyl)-N-(2,9-dioxo-1,2,3,4,5,6,7,8,9,10-decahydrobenzo[b][1,4]diazacyclododecin-3-yl)-1H-1,2,3-triazole-4-carboxamide] are 6000 nM and above 13000 nM.
Consider `Cc1c(C(=O)N[C@H]2CCCCCC(=O)Nc3cc(C(=O)O)ccc3NC2=O)cnn1-c1cccc(Cl)c1F` [Example 26, (S)-3-(1-(3-chloro-2-fluorophenyl)-5-methyl-1H-pyrazole-4-carboxamido)-2,9-dioxo-1,2,3,4,5,6,7,8,9,10-decahydrobenzo[b][1,4]diazacyclododecine-12-carboxylic acid], for which the values for the inhibition constant Ki in experiment [1] and in experiment [2] were 1740 nM and 765 nM, respectively.
For `COC(=O)c1ccc2c(c1)NC(=O)CCCCC[C@H](n1cnc(-c3cc(Cl)ccc3-n3cc(C(F)(F)F)nn3)cc1=O)C(=O)N2` [Example 27, methyl (S)-3-(4-(5-chloro-2-(4-(trifluoromethyl)-1H-1,2,3-triazol-1-yl)phenyl)-6-oxopyrimidin-1(6H)-yl)-2,9-dioxo-1,2,3,4,5,6,7,8,9,10-decahydrobenzo[b][1,4]diazacyclododecine-12-carboxylate], in that order: 561 nM and above 13000 nM.
As to `O=C1CCCCC[C@H](n2cnc(-c3cc(Cl)ccc3-n3cc(C(F)(F)F)nn3)cc2=O)C(=O)Nc2ccc(C(=O)O)cc2N1` [Example 28, (S)-3-(4-(5-chloro-2-(4-(trifluoromethyl)-1H-1,2,3-triazol-1-yl)phenyl)-6-oxopyrimidin-1(6H)-yl)-2,9-dioxo-1,2,3,4,5,6,7,8,9,10-decahydrobenzo[b][1,4]diazacyclododecine-12-carboxylic acid], the inhibitory constant (Ki) in experiment [1] came out at 173 nM; in experiment [2] it was 11600 nM.

As a reminder, the Ki is the equilibrium dissociation constant of an inhibitor or competing ligand from its target. Higher therefore signals lower affinity.
